Measured values published in patent publication US11014911B2, “CDK2 inhibitors” (Pfizer Inc., priority 2019, dated 2021).

How the values were obtained:
[1] = target: CDK2/Cyclin E1 full length (Homo sapiens (Human), UniProt P24941); assay: CDK2/Cyclin E1 full length mobility shift assay; type: biochemical
GSK3β (H350L) = GSK3β (H350L) (Homo sapiens (Human), UniProt P49841); conditions: read-out: GSK3β Ki
GSK3β (H350L), sequence (P49841 whole entry, stated change not applied): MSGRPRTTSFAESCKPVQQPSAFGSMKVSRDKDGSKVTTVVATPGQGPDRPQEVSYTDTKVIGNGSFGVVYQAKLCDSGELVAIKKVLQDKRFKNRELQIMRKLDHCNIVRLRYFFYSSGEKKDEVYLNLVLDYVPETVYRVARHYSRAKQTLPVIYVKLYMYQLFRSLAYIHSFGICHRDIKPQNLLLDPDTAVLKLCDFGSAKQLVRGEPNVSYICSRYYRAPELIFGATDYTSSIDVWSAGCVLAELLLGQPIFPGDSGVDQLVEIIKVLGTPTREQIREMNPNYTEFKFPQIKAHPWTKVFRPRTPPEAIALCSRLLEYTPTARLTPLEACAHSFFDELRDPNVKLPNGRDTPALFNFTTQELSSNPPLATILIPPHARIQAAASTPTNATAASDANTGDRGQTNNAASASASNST
Procedure: The assay was initiated with the addition of ATP, following 15 minutes pre-incubation of enzyme and inhibitor at room temperature in the reaction mixture. The reaction was stopped after 30 minutes at room temperature by the addition of 50 μL of 80 mM EDTA.

Row | Compound | Ki [1] [nM] | Ki (GSK3β (H350L)) [nM]
1 | CCCNC(=O)O[C@H]1CC[C@@H](c2cc(NC(=O)Cc3ccccn3)n[nH]2)C1 [Example 171, (1S,3R)-3-{3-[(pyridin-2-ylacetyl)amino]-1H-pyrazol-5-yl}cyclopentyl propylcarbamate] | 1.73 | 18.2
2 | C[C@H](CC(F)(F)F)NC(=O)O[C@@H]1CC[C@H](c2cc(NC(=O)Cc3cnn(C)c3)n[nH]2)C1 [Example 394, (1R,3S)-3-(3-{[(1-methyl-1H-pyrazol-4-yl)acetyl]amino}-1H-pyrazol-5-yl)cyclopentyl [(2R)-4,4,4-trifluorobutan-2-yl]carbamate] | 0.42 | 42.7
3 | CCN(C)C(=O)O[C@H]1CC[C@@H](c2cc(NC(=O)Cc3ccc(OC)nc3)n[nH]2)C1 [Example 243, (1S,3R)-3-(3-{[(6-methoxypyridin-3-yl)acetyl]amino}-1H-pyrazol-5-yl)cyclopentyl ethyl(methyl)carbamate] | 0.75 | 5.35
4 | CC[C@@H](C)NC(=O)O[C@@H]1CC[C@H](c2cc(NC(=O)Cc3ccno3)n[nH]2)C1 [Example 322, (1R,3S)-3-{3-[(1,2-oxazol-5-ylacetyl)amino]-1H-pyrazol-5-yl}cyclopentyl (2R)-butan-2-ylcarbamate] | 0.93 | 81.2
5 | CC[C@H](C)NC(=O)O[C@@H]1CC[C@H](c2cc(NC(=O)c3ccnn3CCO)n[nH]2)C1 [Example 53] | 0.1 | 45.7
6 | Cc1cc(CC(=O)Nc2cc([C@H]3CC[C@@H](OC(=O)N4CCOC[C@@H]4C)C3)[nH]n2)on1 [Example 642, (1R,3S)-3-(3-{[(3-methyl-1,2-oxazol-5-yl)acetyl]amino}-1H-pyrazol-5-yl)cyclopentyl (3S)-3-methylmorpholine-4-carboxylate] | 1.37 | 10.3
7 | CCNC(=O)O[C@@H]1CC[C@H](c2cc(NC(=O)Cc3ccno3)n[nH]2)C1 [Example 226, (1R,3S)-3-{3-[(1,2-oxazol-5-ylacetyl)amino]-1H-pyrazol-5-yl}cyclopentyl ethylcarbamate] | 3.72 | 132
8 | CC[C@H](C)NC(=O)O[C@@H]1CC[C@H](c2cc(NC(=O)c3ccnc4ncsc34)n[nH]2)C1 [Example 43] | 0.04 | 45.4
9 | CCCNC(=O)O[C@@H]1CC[C@H](c2cc(NC(=O)Cc3ccc(OC)cc3S(C)(=O)=O)n[nH]2)C1 [Example 212, (1R,3S)-3-[3-({[4-methoxy-2-(methylsulfonyl)phenyl]acetyl}amino)-1H-pyrazol-5-yl]cyclopentyl propylcarbamate] | 0.67 | 77.2
10 | CC[C@H](C)NC(=O)O[C@@H]1CC[C@H](c2cc(NC(=O)Cc3ccccc3)n[nH]2)C1 [Example 38] | 0.18 | 69.7
11 | CC[C@H](C)NC(=O)O[C@@H]1CC[C@H](c2cc(NC(=O)Cc3cnn(C)n3)n[nH]2)C1 [Example 330, (1R,3S)-3-(3-{[(2-methyl-2H-1,2,3-triazol-4-yl)acetyl]amino}-1H-pyrazol-5-yl)cyclopentyl (2S)-butan-2-ylcarbamate] | 0.55 | 86
12 | CC[C@H](C)NC(=O)O[C@@H]1CC[C@H](c2cc(NC(=O)Cc3cncc(C)n3)n[nH]2)C1 [Example 336, (1R,3S)-3-(3-{[(6-methylpyrazin-2-yl)acetyl]amino}-1H-pyrazol-5-yl)cyclopentyl (2S)-butan-2-ylcarbamate] | 0.39 | 53.5
13 | CC1(C)CCN1C(=O)O[C@H]1CC[C@@H](c2cc(NC(=O)Cc3ccccc3S(C)(=O)=O)n[nH]2)C1 [Example 143] | 0.25 | 15.8
14 | Cc1cc(CC(=O)Nc2cc([C@H]3CC[C@@H](OC(=O)N4CCCC[C@H]4C)C3)[nH]n2)on1 [Example 641, (1R,3S)-3-(3-{[(3-methyl-1,2-oxazol-5-yl)acetyl]amino}-1H-pyrazol-5-yl)cyclopentyl (2R)-2-methylpiperidine-1-carboxylate] | 0.59 | 14.4
15 | C[C@@H](CC(F)(F)F)NC(=O)O[C@@H]1CC[C@H](c2cc(NC(=O)c3cnnn3C)n[nH]2)C1 [Example 91] | 0.09 | 28.1
16 | Cc1cc(CC(=O)Nc2cc([C@H]3CC[C@@H](OC(=O)N4CCOCC4(C)C)C3)[nH]n2)on1 [Example 649, (1R,3S)-3-(3-{[(3-methyl-1,2-oxazol-5-yl)acetyl]amino}-1H-pyrazol-5-yl)cyclopentyl 3,3-dimethylmorpholine-4-carboxylate] | 0.31 | 9.2
17 | CC(C)(C)NC(=O)O[C@@H]1CC[C@H](c2cc(NC(=O)Cc3ccon3)n[nH]2)C1 [Example 17, (1R,3S)-3-{3-[(1,2-oxazol-3-ylacetyl)amino]-1H-pyrazol-5-yl}cyclopentyl tert-butylcarbamate] | 0.33 | 65.8
18 | CCN(C)C(=O)O[C@@H]1CC[C@H](c2cc(NC(=O)Cc3cc(F)cc(F)c3)n[nH]2)C1 [Example 245, (1R,3S)-3-(3-{[(3,5-difluorophenyl)acetyl]amino}-1H-pyrazol-5-yl)cyclopentyl ethyl(methyl)carbamate] | 0.53 | 19.2

Row | Compound | Ki [1] [nM] | Ki (GSK3β (H350L)) [nM]
19 | COc1cc(CC(=O)Nc2cc([C@@H]3CC[C@H](OC(=O)N[C@H]4CC[C@H](O)CC4)C3)[nH]n2)ccn1 [Example 555, (1S,3R)-3-(3-{[(2-methoxypyridin-4-yl)acetyl]amino}-1H-pyrazol-5-yl)cyclopentyl (trans-4-hydroxycyclohexyl)carbamate] | 0.37 | 3.58
20 | Cc1cc(CC(=O)Nc2cc([C@H]3CC[C@@H](OC(=O)N4CCC[C@@H]4C)C3)[nH]n2)no1 [Example 634, (1R,3S)-3-(3-{[(5-methyl-1,2-oxazol-3-yl)acetyl]amino}-1H-pyrazol-5-yl)cyclopentyl (2S)-2-methylpyrrolidine-1-carboxylate] | 0.99 | 14.4
21 | CC[C@H](C)NC(=O)O[C@@H]1CC[C@H](c2cc(NC(=O)Cc3cn4nc(C)sc4n3)n[nH]2)C1 [Example 359, (1R,3S)-3-(3-{[(2-methylimidazo[2,1-b][1,3,4]thiadiazol-6-yl)acetyl]amino}-1H-pyrazol-5-yl)cyclopentyl (2S)-butan-2-ylcarbamate] | 0.39 | 28.5
22 | C[C@H]1CCCN1C(=O)O[C@@H]1CC[C@H](c2cc(NC(=O)Cc3cnc4ncnn4c3)n[nH]2)C1 [Example 141] | 0.08 | 5.75
23 | COc1ccc(CC(=O)Nc2cc([C@H]3CC[C@@H](OC(=O)NC(C)(C)C)C3)[nH]n2)cn1 [Example 114] | 0.19 | 5.65
24 | Cc1cnc(CC(=O)Nc2cc([C@H]3CC[C@@H](OC(=O)NC4(CC(F)(F)F)CC4)C3)[nH]n2)cn1 [Example 455, (1R,3S)-3-(3-{[(5-methylpyrazin-2-yl)acetyl]amino}-1H-pyrazol-5-yl)cyclopentyl [1-2,2,2-trifluoroethyl)cyclopropyl] carbamate] | 0.47 | 21.3
25 | Cc1ncc(CC(=O)Nc2cc([C@H]3CC[C@@H](OC(=O)N4C[C@@](C)(O)[C@@H]4C)C3)[nH]n2)s1 [Example 623, (1R,3S)-3-(3-{[(2-methyl-1,3-thiazol-5-yl)acetyl]amino}-1H-pyrazol-5-yl)cyclopentyl (2S,3R)-3-hydroxy-2,3-dimethylazetidine-1-carboxylate] | 1.17 | 6.31
26 | CC[C@H](C)NC(=O)O[C@@H]1CC[C@H](c2cc(NC(=O)c3ccc(C)nc3)n[nH]2)C1 [Example 324, (1R,3S)-3-(3-{[(6-methylpyridin-3-yl)carbonyl]amino}-1H-pyrazol-5-yl)cyclopentyl (2S)-butan-2-ylcarbamate] | 0.54 | 94.3
27 | COc1ccc(CC(=O)Nc2cc([C@@H]3CC[C@H](OC(=O)N[C@H]4CC[C@@](C)(O)CC4)C3)[nH]n2)cn1 [Example 570, (1S,3R)-3-(3-{[(6-methoxypyridin-3-yl)acetyl]amino}-1H-pyrazol-5-yl)cyclopentyl (cis-4-hydroxy-4-methylcyclohexyl)carbamate] | 0.35 | 3.29
28 | CCCNC(=O)O[C@@H]1CC[C@H](c2cc(NC(=O)Cc3cc(OC)ncc3S(C)(=O)=O)n[nH]2)C1 [Example 214, (1R,3S)-3-[3-({[2-methoxy-5-(methylsulfonyl)pyridin-4-yl]acetyl}amino)-1H-pyrazol-5-yl]cyclopentyl propylcarbamate] | 0.37 | 131
29 | CC[C@H](C)NC(=O)O[C@@H]1CC[C@H](c2cc(NC(=O)Cc3cnn(C(C)C)c3)n[nH]2)C1 [Example 349, (1R,3S)-3-[3-({[1-(propan-2-yl)-1H-pyrazol-4-yl]acetyl}amino)-1H-pyrazol-5-yl]cyclopentyl (2S)-butan-2-ylcarbamate] | 0.4 | 57.3
30 | CC[C@H](C)NC(=O)O[C@@H]1CC[C@H](c2cc(NC(=O)Cc3cc(OC)ccc3S(C)(=O)=O)n[nH]2)C1 [Example 50] | 0.17 | 117
31 | Cc1ccc(CC(=O)Nc2cc([C@H]3CC[C@@H](OC(=O)NCC(F)F)C3)[nH]n2)cn1 [Example 247, (1R,3S)-3-(3-{[(6-methylpyridin-3-yl)acetyl]amino}-1H-pyrazol-5-yl)cyclopentyl (2,2-difluoroethyl)carbamate] | 1.36 | 12.2
32 | COCc1cc(C(=O)Nc2cc([C@H]3CC[C@@H](OC(=O)NCCC(F)(F)F)C3)[nH]n2)n(C)n1 [Example 103] | 1.37 | > 47.6
33 | CC[C@H](C)NC(=O)O[C@@H]1CC[C@H](c2cc(NC(=O)c3ccnn3CCOC)n[nH]2)C1 [Example 51] | 0.2 | 54
34 | CC[C@H](C)NC(=O)O[C@@H]1CC[C@H](c2cc(NC(=O)Cc3cc(C)on3)n[nH]2)C1 [Example 332, (1R,3S)-3-(3-{[(5-methyl-1,2-oxazol-3-yl)acetyl]amino}-1H-pyrazol-5-yl)cyclopentyl (2S)-butan-2-ylcarbamate] | 1.05 | 61.3
35 | COc1cc(CC(=O)Nc2cc([C@H]3CC[C@@H](OC(=O)NCCC(F)(F)F)C3)[nH]n2)ccn1 [Example 102] | 0.39 | 9.9
